Source: ChEMBL document CHEMBL1130786, “Sulfonamide-based hydroxamic acids as potent inhibitors of mouse macrophage metalloelastase” (Bioorg Med Chem Lett, 1998)

What follows are molecules tested against Macrophage metalloelastase (Mus musculus) (UniProt P34960) (assay: Inhibitory activity against mouse macrophage metalloelastase (MME) at 100 nM concentration using [3H]elastin as a substrate).
Sequence of Macrophage metalloelastase (Mus musculus) (P34960 110-473 limits assumed): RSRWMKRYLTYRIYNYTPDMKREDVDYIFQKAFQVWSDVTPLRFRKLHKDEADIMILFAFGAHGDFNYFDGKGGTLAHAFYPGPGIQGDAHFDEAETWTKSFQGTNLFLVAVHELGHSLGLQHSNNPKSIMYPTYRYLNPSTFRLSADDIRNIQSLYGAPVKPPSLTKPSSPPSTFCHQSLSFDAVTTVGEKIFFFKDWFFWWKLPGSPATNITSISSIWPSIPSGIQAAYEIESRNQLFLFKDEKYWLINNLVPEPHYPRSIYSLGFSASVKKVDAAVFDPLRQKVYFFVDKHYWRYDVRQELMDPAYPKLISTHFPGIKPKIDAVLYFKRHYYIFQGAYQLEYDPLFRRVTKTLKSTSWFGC

inhibition [%] | Compound
80 | COc1ccc(S(=O)(=O)N(CC(=O)NO)Cc2cccnc2)cc1
0 | COc1ccc(S(=O)(=O)N(CC(=O)NO)C(C)C)cc1
92 | COc1ccc(S(=O)(=O)N(CC(=O)NO)Cc2ccncc2)cc1
89 | COc1ccc(CN(CC(=O)NO)S(=O)(=O)c2ccc(OC)cc2)cc1
76 | COc1ccc(S(=O)(=O)N(CC(=O)NO)Cc2ccc(Cl)cc2)cc1
86 | COc1ccc(S(=O)(=O)N(CC(=O)NO)Cc2ccc(-c3ccccc3)cc2)cc1
83 | COc1ccc(S(=O)(=O)N(CCCCc2ccccc2)CC(=O)NO)cc1
82 | COc1ccc(S(=O)(=O)N(CC(=O)NO)Cc2ccc(C)cc2)cc1
75 | COc1ccc(S(=O)(=O)N(CC(=O)NO)Cc2cccc(OC)c2)cc1
70 | COc1ccc(S(=O)(=O)N(CC(=O)NO)CC(C)C)cc1
77 | COc1ccc(S(=O)(=O)N(CC(=O)NO)CC2CCCCC2)cc1
0 | COc1ccc(S(=O)(=O)NCC(=O)NO)cc1
11 | COc1ccc(S(=O)(=O)N(CCC(C)C)CC(=O)NO)cc1
35 | CCC(C)N(CC(=O)NO)S(=O)(=O)c1ccc(OC)cc1 (stereo not given)
74 | COc1ccc(S(=O)(=O)N(CC(=O)NO)Cc2ccccc2)cc1
88 | COc1ccc(S(=O)(=O)N(CC(=O)NO)Cc2ccccn2)cc1
79 | COc1ccc(S(=O)(=O)N(CCC2CCCCC2)CC(=O)NO)cc1
13 | COc1ccc(S(=O)(=O)N(CC(=O)NO)C2CCCCC2)cc1
88 | COc1ccc(S(=O)(=O)N(CCc2ccccc2)CC(=O)NO)cc1
50 | COc1ccc(S(=O)(=O)N(CC(=O)NO)Cc2ccc3ccccc3n2)cc1

Compound | inhibition [%]
CC(C)CN(CC(=O)NO)S(=O)(=O)c1ccccc1 | 27
CCOCCOc1ccc(S(=O)(=O)N(CC(=O)NO)CC(C)C)cc1 | 69
CC(C)CN(CC(=O)NO)S(=O)(=O)c1ccc(Cl)cc1 | 68
CC(C)CN(CC(=O)NO)S(=O)(=O)c1ccc(N(C)C)cc1 | 34
CC(C)CN(CC(=O)NO)S(=O)(=O)c1ccc(F)cc1 | 22
CC(C)CN(CC(=O)NO)S(=O)(=O)c1ccc(N)cc1 | 22
Cc1ccc(S(=O)(=O)N(CC(=O)NO)CC(C)C)cc1 | 56

What follows are molecules tested against Macrophage metalloelastase (Mus musculus, UniProt P34960) (assay: Inhibitory activity against mouse macrophage metalloelastase (MME) using [3H]elastin as a substrate).
Sequence of Macrophage metalloelastase (P34960 whole entry): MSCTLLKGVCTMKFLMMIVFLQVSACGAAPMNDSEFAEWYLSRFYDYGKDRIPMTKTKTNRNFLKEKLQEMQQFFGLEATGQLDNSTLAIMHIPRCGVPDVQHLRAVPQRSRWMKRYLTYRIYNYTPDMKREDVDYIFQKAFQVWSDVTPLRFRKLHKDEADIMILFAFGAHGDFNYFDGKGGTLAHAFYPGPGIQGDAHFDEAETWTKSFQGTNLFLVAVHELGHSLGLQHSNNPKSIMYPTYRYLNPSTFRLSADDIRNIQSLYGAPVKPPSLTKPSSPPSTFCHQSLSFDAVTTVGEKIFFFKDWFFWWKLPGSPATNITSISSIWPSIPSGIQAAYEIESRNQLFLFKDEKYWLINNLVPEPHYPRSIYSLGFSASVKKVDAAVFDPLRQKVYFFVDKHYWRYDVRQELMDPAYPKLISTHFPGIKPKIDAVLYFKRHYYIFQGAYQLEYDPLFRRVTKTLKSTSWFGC

IC50 [nM] | Compound
67 | COc1ccc(S(=O)(=O)N(Cc2ccccc2)[C@H](CCCCNC(=O)Oc2ccccc2)C(=O)NO)cc1
13 | COc1ccc(S(=O)(=O)N(Cc2ccccc2)[C@H](CC(C)C)C(=O)NO)cc1
16 | COc1ccc(S(=O)(=O)N(Cc2ccccc2)C(C(=O)NO)C(C)C)cc1 (stereo not given)
4.9 | COc1ccc(S(=O)(=O)N(Cc2ccccc2)[C@@H](C(=O)NO)C(C)C)cc1
15 | COc1ccc(S(=O)(=O)N(Cc2ccccc2)[C@@H](C(=O)NO)C2CCCC2)cc1
4.8 | CC[C@@H](C)C[C@H](C(=O)NO)N(Cc1ccccc1)S(=O)(=O)c1ccc(OC)cc1
9.6 | COc1ccc(S(=O)(=O)N(Cc2ccccc2)[C@H](C)C(=O)NO)cc1
7.7 | COc1ccc(S(=O)(=O)N(Cc2cccnc2)[C@@H](C(=O)NO)C(C)C)cc1 [CGS-27023A]
31 | COc1ccc(S(=O)(=O)N(Cc2ccccc2)[C@@H](C(=O)NO)c2ccccc2)cc1
6 | COc1ccc(S(=O)(=O)N(Cc2ccccn2)[C@@H](C(=O)NO)C(C)C)cc1
35 | COc1ccc(S(=O)(=O)N(Cc2ccccc2)[C@@H](C)C(=O)NO)cc1
16 | CC[C@H](C)C[C@H](C(=O)NO)N(Cc1ccccc1)S(=O)(=O)c1ccc(OC)cc1
6.9 | COc1ccc(S(=O)(=O)N(Cc2ccccn2)[C@H](CC(C)C)C(=O)NO)cc1
> 100 | COc1ccc(S(=O)(=O)N(Cc2ccccc2)[C@@H](C(=O)NO)C2CCNCC2)cc1
37 | COc1ccc(S(=O)(=O)N(Cc2ccccn2)[C@H](C(=O)NO)C(C)C)cc1
13 | COc1ccc(S(=O)(=O)N(Cc2ccccc2)C(C)C(=O)NO)cc1 (stereo not given)

Each molecule was assayed against Macrophage metalloelastase (Mus musculus) (UniProt P34960) (assay: Inhibitory activity against mouse macrophage metalloelastase (MME) using [3H]elastin as a substrate; NI means no inhibition at 100 nM concentration).

inhibition | Compound
No inhibition | COc1ccc(S(=O)(=O)N(Cc2cccnc2)[C@@H](C(=O)O)C(C)C)cc1
No inhibition | COc1ccc(S(=O)(=O)N(Cc2cccnc2)[C@@H](C(=O)NOCc2ccccc2)C(C)C)cc1
